How the values were obtained:
[1] = species on record: Homo sapiens; assay: Induction of tau K19 (unknown origin) disaggregation assessed as decrease in paired helical filament formation measured disassembly-inducing half maxima after 10 days by thioflavin S fluorescence assay in presence of heparin
[2] = Inhibition of tau K19 (unknown origin) aggregation assessed as inhibition of paired helical filament formation after 10 days by thioflavin S fluorescence assay in presence of heparin; set-up: species or system Homo sapiens
[3] = target: T1, Microtubule-associated protein tau (Homo sapiens, UniProt P10636); assay: Inhibition of tau protein aggregation (unknown origin) at 5:1 compound to protein concentration by Western blot analysis
T1 sequence (P10636 whole entry): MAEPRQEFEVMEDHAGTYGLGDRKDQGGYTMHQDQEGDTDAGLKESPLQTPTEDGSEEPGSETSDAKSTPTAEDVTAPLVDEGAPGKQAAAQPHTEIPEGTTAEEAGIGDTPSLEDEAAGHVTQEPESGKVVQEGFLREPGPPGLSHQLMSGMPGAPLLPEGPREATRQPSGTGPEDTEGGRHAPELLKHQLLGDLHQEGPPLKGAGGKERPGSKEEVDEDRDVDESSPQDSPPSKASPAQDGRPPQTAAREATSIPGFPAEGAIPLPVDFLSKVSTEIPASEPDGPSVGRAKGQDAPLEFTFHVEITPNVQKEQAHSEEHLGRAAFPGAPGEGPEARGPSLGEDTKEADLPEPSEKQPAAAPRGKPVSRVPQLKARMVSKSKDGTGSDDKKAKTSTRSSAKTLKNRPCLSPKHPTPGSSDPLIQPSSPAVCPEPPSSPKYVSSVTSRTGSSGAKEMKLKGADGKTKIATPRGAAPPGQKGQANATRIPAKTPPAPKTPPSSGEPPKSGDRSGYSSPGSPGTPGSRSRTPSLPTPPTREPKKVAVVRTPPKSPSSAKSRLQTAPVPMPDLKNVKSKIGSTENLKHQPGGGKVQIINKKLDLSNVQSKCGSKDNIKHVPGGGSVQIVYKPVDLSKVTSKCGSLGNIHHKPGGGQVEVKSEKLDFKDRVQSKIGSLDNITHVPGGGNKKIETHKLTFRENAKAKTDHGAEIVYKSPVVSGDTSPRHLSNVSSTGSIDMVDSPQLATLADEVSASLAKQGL

[4] = target: T1, Microtubule-associated protein tau; assay: Inhibition of human recombinant brain tau protein (412 amino acid residues) filament assembly expressed in Escherichia coli BL21(DE3) by electron microscopic analysis in presence of heparin
[5] = Inhibition of K18 P301L mutant (unknown origin) fibril formation after 1 hr by thioflavin T fluorescence assay; set-up: species or system Homo sapiens
[6] = species on record: Homo sapiens; assay: Induction of tau K19 (unknown origin) disaggregation assessed as disassembly-inducing half maxima
[7] = Binding affinity to tau K19 (unknown origin) assessed as dissociation constant by STD-NMR analysis; set-up: species or system Homo sapiens
[8] = Inhibition of tau K19 aggregation (unknown origin); set-up: species or system Homo sapiens
[9] = Inhibition of tau K19 protein (unknown origin) aggregation by thioflavin S fluorescence assay; set-up: species or system Homo sapiens
[10] = species on record: Homo sapiens; assay: Induction of tau K19 (unknown origin) disaggregation assessed as decrease in paired helical filament formation measured disassembly-inducing half maxima by thioflavin S fluorescence assay
[11] = Inhibition of tau K18 aggregation in mouse N2A cells; assay type: cell-based
[12] = target: Amyloid-beta precursor protein (Homo sapiens, UniProt P05067); assay: Inhibition of amyloid beta (1 to 40) (unknown origin) fibril formation after 18 hrs by DELFIA
Sequence of Amyloid-beta precursor protein (P05067 whole entry): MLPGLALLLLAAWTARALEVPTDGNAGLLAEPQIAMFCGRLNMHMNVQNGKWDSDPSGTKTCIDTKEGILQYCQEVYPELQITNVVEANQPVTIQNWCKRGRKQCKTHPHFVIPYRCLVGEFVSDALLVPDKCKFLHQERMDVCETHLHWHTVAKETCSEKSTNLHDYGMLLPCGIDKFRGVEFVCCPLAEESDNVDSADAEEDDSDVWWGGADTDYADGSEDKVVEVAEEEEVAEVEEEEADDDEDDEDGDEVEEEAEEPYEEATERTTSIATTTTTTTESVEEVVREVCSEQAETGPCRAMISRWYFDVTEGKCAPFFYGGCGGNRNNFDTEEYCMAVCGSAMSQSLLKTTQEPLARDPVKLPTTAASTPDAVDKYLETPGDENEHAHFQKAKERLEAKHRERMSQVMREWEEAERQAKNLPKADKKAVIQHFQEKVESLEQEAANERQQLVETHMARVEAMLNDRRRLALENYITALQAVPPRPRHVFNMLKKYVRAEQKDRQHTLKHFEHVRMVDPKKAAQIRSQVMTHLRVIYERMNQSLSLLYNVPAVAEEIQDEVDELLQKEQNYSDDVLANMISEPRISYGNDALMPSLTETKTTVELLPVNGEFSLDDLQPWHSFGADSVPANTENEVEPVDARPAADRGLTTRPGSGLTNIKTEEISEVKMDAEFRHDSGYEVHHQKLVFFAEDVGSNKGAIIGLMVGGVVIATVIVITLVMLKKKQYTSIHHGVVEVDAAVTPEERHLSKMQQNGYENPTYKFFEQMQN

[13] = test system: N2a; assay: Inhibition of tau K18 deltaK280 mutant aggregation in mouse N2A cells at 10 uM measured over 5 days by thioflavin S fluorescence assay relative to control; assay type: cell-based
[14] = Tmax in amyotrophic lateral sclerosis patient; conditions: human, in vivo
[15] = Inhibition of […] human tau K18 aggregation
[16] = target: T1, Microtubule-associated protein tau; assay: Inhibition of tau protein aggregation (unknown origin)
[17] = test system: N2a; assay: Cytotoxicity against mouse N2A cells at 10 uM after 24 hrs by LDH assay relative to control; assay type: cell-based
[18] = Terminal half life in rat at 100 mg, iv; assay type: ADME, organism-based; conditions: in vivo, read-out: beta t1/2 (converted)
[19] = species on record: Homo sapiens; assay: Selectivity ratio of IC50 for full length human tau40 aggregation to IC50 for tau K19 aggregation (unknown origin)
[20] = Inhibition of full length human tau40 aggregation
[21] = Oral bioavailability in diabetic neuropathy patient at 150 mg/day; assay type: ADME, organism-based; conditions: human, in vivo
[22] = target: T1, Microtubule-associated protein tau; assay: Induction of tau protein (unknown origin) disaggregation assessed as disassembly-inducing half maxima

COc1cccc2c1C(=O)c1c(O)c3c(c(O)c1C2=O)C[C@@](O)(C(C)=O)C[C@@H]3O[C@H]1C[C@H](N)[C@H](O)[C@H](C)O1 [DAUNORUBICIN]
Activity [1]: 2.2 µM | IC50 [2]: 1.1 µM

CN(C)c1ccc2nc3ccc(N)cc3[s+]c2c1
IC50 [3]: 0.069 µM | IC50 [4]: 2.6 µM

CCOC(=O)c1nn(-c2ccc(OC)cc2)c(=O)c2c(N)scc12
IC50 [5]: 5.1 µM

O=C(c1ccccc1)c1ccc(O)c(O)c1O
Activity [1]: 2.2 µM | IC50 [2]: 1.1 µM

O=C(NNc1nc(-c2ccc([N+](=O)[O-])cc2)cs1)c1ccc2[nH]cnc2c1
Activity [6]: 0.7 µM | Kd [7]: 62 µM | IC50 [8]: 1.6 µM

Nc1ccc2nc3ccc(N)cc3[s+]c2c1
IC50 [3]: 0.069 µM

O=C(O)CCN1C(=O)/C(=C/c2ccc(-c3cccc(Cl)c3)s2)SC1=S
IC50 [9]: 0.97 µM | Activity [10]: 0.77 µM

O=C(O)COc1ccc(Nc2c([N+](=O)[O-])cc([N+](=O)[O-])c3cccnc23)cc1
IC50 [11]: < 15 µM

Oc1cc(O)c2c(c1)O[C@H](c1ccc(O)c(O)c1)[C@H](O)C2 [(-)-EPICATECHIN]
IC50 [4]: ≥ 200 µM

COc1cccc2c1C(=O)c1c(O)c3c(c(O)c1C2=O)C[C@@](O)(C(=O)CO)C[C@@H]3O[C@H]1C[C@H](N)[C@H](O)[C@H](C)O1
Activity [1]: 2.2 µM

COc1ccccc1OCCNCC(O)COc1cccc2[nH]c3ccccc3c12 (configuration not stated) [CARVEDILOL]
IC50 [12]: 30 µM

Cc1nc(Nc2ccccc2C(=O)O)nc(Nc2ccccc2C(=O)O)c1[N+](=O)[O-]
IC50 [11]: < 10 µM | inhibition [13]: 70%

Nc1nc2ccc(OC(F)(F)F)cc2s1 [RILUZOLE]
Tmax [14]: 2 h

Cc1cc(O)c2c(c1)C(=O)c1cc(O)cc(O)c1C2=O [EMODIN]
Activity [1]: 2.2 µM | IC50 [2]: 1.1 µM

CCC(/C=C1\Sc2ccc(OC)cc2N1CCO)=C\c1sc2ccc(OC)cc2[n+]1CCO
IC50 [15]: 0.3 µM | IC50 [16]: 0.38 µM

O=C(O)CCN1C(=O)/C(=C/c2ccc(-c3cccc(Cl)c3)o2)SC1=S
IC50 [9]: 0.47 µM | Activity [10]: 0.3 µM

O=C1/C(=C/c2ccc(-c3cccc(Cl)c3)o2)SC(=S)N1Cc1nc2ccccc2[nH]1
IC50 [9]: 0.67 µM | Activity [17]: 2% | Activity [10]: 0.94 µM

CN(C)c1ccc2nc3ccc(N(C)C)cc3[s+]c2c1.[Cl-] [METHYLENE BLUE ANHYDROUS]
half-life [18]: 5 h

O=C(O[C@@H]1Cc2c(O)cc(O)cc2O[C@@H]1c1cc(O)c(O)c(O)c1)c1cc(O)c(O)c(O)c1 [EPIGALOCATECHIN GALLATE]
Ratio IC50 [19]: > 50 | IC50 [20]: > 200 µM | IC50 [8]: 3.9 µM | IC50 [4]: 1.8 µM

Cc1cc2nc3ccc(N(C)C)cc3[s+]c2cc1N [TOLONIUM CHLORIDE]
IC50 [3]: 0.069 µM

O=C1c2ccc(O)c(O)c2C(=O)c2c(O)ccc(O)c21 [QUINALIZARIN]
Activity [1]: 2.2 µM | IC50 [2]: 1.1 µM

CC(/C=C1\SC(=S)N(CC(=O)O)C1=O)=C\c1ccccc1
bioavailability [21]: 100%

Cc1ccc(C(=O)N/N=C/c2ccc(O)c(O)c2O)cc1
IC50 [16]: 0.97 µM | Activity [22]: 1.1 µM

C1=C2\Sc3ccccc3N2CCCCC[n+]2c(sc3ccccc32)/C=C/C=C2\Sc3ccccc3N2CCCCC[n+]2c(sc3ccccc32)/C=C/1
IC50 [16]: 0.08 µM

CCOC(=O)c1nn(-c2ccccc2)c(=O)c2c(N)scc12
IC50 [5]: 6.3 µM

— ChEMBL document CHEMBL2385058, “Progress and developments in tau aggregation inhibitors for Alzheimer disease” (J Med Chem, 2013)
